Consider 32 compounds from US12331068B2, “Compositions and methods for inhibiting CD73” (Peloton Therapeutics, Inc., priority 2018, dated 2025).

Assay [1] concerns the target T1, CD73 on U138 human neuroglioma cells (Homo sapiens, UniProt P21589).
T1 construct: U138 cells were obtained from ATCC and cultured in DMEM with 10% FBS; host or cells: U138 human neuroglioma cells
T1 sequence (P21589 27-549): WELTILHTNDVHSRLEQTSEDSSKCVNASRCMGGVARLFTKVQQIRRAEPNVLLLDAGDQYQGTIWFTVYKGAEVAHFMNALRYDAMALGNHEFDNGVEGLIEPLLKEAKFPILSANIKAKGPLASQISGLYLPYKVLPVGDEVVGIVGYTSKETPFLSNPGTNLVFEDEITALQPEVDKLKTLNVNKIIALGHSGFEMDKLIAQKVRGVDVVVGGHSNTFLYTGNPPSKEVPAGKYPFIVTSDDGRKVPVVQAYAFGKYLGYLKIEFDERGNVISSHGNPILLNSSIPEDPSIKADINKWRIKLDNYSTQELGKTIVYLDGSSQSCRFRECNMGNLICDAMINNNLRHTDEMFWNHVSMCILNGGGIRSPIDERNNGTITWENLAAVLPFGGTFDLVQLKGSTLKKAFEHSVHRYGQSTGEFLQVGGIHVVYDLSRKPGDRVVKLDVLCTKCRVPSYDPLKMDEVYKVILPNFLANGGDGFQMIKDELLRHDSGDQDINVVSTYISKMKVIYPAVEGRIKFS
In words: CD73 Cell-Based Assay (inorganic phosphate from AMP, malachite green). The following applies: AMP substrate, 2 hours at 37° C. A digest of the protocol:
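U138 cells, seeded the day before at 2500 per well, were washed and given AMP substrate (200 μM in the added mixture, before dilution into the buffer) together with compound. After 2 h at 37 °C in 5% CO2, inorganic phosphate in the supernatant was measured with malachite green.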

A further assay addresses T2, Human CD73 (Homo sapiens, UniProt P21589).
T2 construct: purchased R&D Systems; host or cells: CHO cells
T2 sequence (P21589 27-549): T1 sequence (P21589 27-549)
In words: CD73 Enzyme Assay (EnzChek PNP/MESG kinetic readout of AMP hydrolysis). The following applies: 0.25 nM hCD73, 25 μM AMP; read-out: CD73 Enzyme Assay IC50. In kind it is biochemical. The essentials:
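Compounds tested as 15-point, 3-fold dilution series (300 μM to 0.0002 μM) in DMSO. Kinetic absorbance at 360 nm read every minute for 10–20 min, initial velocity taken from the linear portion.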

The mark [2] stands for this setting: read-out: CD73 Cell-Based assay IC50.

Where two headings read alike, the source gives them in different places.

In the case of `N#Cc1c(Cl)nc2c(ccn2[C@@H]2O[C@H](CS(=O)(=O)CP(=O)(O)O)[C@@H](O)[C@@H]2F)c1N1CCC(F)(F)C1` [Compound 171], the IC50 (in assay [1] (setting [2]); at Human CD73) was below 10 nM in each case.

For the compound `C[C@H](Nc1c(C#N)c(Cl)nc2c1ccn2[C@@H]1O[C@H](CS(=O)(=O)CP(=O)(O)O)[C@@H](O)[C@H]1O)c1cccc(C#N)c1` [Compound 190], the IC50 (in assay [1] (setting [2]); on Human CD73) was below 10 nM throughout.

Take `N#Cc1nc2c(ccn2[C@@H]2O[C@H](CS(=O)(=O)CP(=O)(O)O)[C@@H](O)[C@H]2O)c(NC2CC3(CC3)C2)c1Cl` [Compound 221]: the concentration for half-maximal inhibition (IC50) (in assay [1] (setting [2]); on Human CD73) was below 10 nM throughout.

On to `N#Cc1c(Cl)nc2c(ccn2[C@@H]2O[C@H](COCP(=O)(O)O)[C@@H](O)[C@H]2O)c1N1C[C@@H](F)[C@H](F)C1` [Compound 68], for which the IC50 (in assay [1] (setting [2]); on Human CD73) was below 10 nM throughout.

For `N#Cc1nc2c(ccn2[C@@H]2O[C@H](CS(=O)(=O)CP(=O)(O)O)[C@@H](O)[C@H]2O)c(NC2CCCC2)c1Cl` [Compound 210], the IC50 (in assay [1] (setting [2]); on Human CD73) was below 10 nM each time.

Consider `N#Cc1c(Cl)nc2c(ccn2[C@@H]2O[C@H](CS(=O)(=O)CP(=O)(O)O)[C@@H](O)[C@@H]2F)c1N` [Compound 173], for which the IC50 in assay [1] (setting [2]) was above 100 nM; on Human CD73, 10 to 100 nM.

On to `N#Cc1c(Cl)nc2c(ncn2[C@@H]2O[C@H](COCP(=O)(O)O)[C@@H](O)[C@H]2O)c1N1C[C@@H](F)[C@@H](F)C1` [Compound 92, ((((2R,3S,4R,5R)-5-(5-chloro-6-cyano-7-((3S,4R)-3,4-difluoropyrrolidin-1-yl)-3H-imidazo[4,5-b]pyridin-3-yl)-3,4-dihydroxytetrahydrofuran-2-yl)methoxy)methyl)phosphonic acid], for which the IC50 (in assay [1] (setting [2]); at Human CD73) was below 10 nM throughout.

As for `N#Cc1c(Cl)nc2c(cnn2[C@@H]2O[C@H](COP(=O)(O)CP(=O)(O)O)[C@@H](O)[C@H]2O)c1N[C@H]1C[C@@H](F)C1` [Compound 321], the IC50 (in assay [1] (setting [2]); at Human CD73) was below 10 nM each time.

On to `N#Cc1c(Cl)nc2c(cnn2[C@@H]2O[C@H](CS(=O)(=O)CP(=O)(O)O)[C@@H](O)[C@H]2O)c1N1CCC(F)(F)C1` [Compound 119, (((((2S,3S,4R,5R)-5-(6-chloro-5-cyano-4-(3,3-difluoropyrrolidin-1-yl)-1H-pyrazolo[3,4-b]pyridin-1-yl)-3,4-dihydroxytetrahydrofuran-2-yl)methyl)sulfonyl)methyl)phosphonic acid], for which the IC50 in assay [1] (setting [2]) is below 10 nM; at Human CD73, 10 to 100 nM.

With `N#Cc1c(Cl)nc2c(ccn2[C@@H]2O[C@H](CS(=O)(=O)CP(=O)(O)O)[C@@H](O)[C@H]2O)c1NC1CC2CC2C1` (some centres unmarked) [Compound 33], the IC50 (in assay [1] (setting [2]); at Human CD73) was below 10 nM in each case.

Consider `N#Cc1c(Cl)nc2c(cnn2[C@@H]2O[C@H](CS(=O)(=O)CP(=O)(O)O)[C@@H](O)[C@H]2O)c1N[C@H]1C[C@H](F)C1` [Compound 144, (((((2S,3S,4R,5R)-5-(6-chloro-5-cyano-4-(((1r,3R)-3-fluorocyclobutyl)amino)-1H-pyrazolo[3,4-b]pyridin-1-yl)-3,4-dihydroxytetrahydrofuran-2-yl)methyl)sulfonyl)methyl)phosphonic acid], for which the IC50 (in assay [1] (setting [2]); at Human CD73) was below 10 nM each time.

As to `N#Cc1c(Cl)nc2c(ncn2[C@@H]2O[C@H](COCP(=O)(O)O)[C@@H](O)[C@H]2O)c1N1CC2CCCC2C1` (some centres unmarked) [Compound 57], the IC50 (in assay [1] (setting [2]); at Human CD73) was below 10 nM each time.

In the case of `C[C@H](Nc1c(C#N)c(Cl)nc2c1ccn2[C@@H]1O[C@H](COP(=O)(O)CP(=O)(O)O)[C@@H](O)[C@H]1O)c1ccc(C#N)cc1` [Compound 223], the IC50 (in assay [1] (setting [2]); at Human CD73) was below 10 nM in each case.

With `N#Cc1nc2c(ccn2[C@@H]2O[C@H](COCP(=O)(O)O)[C@@H](O)[C@H]2O)c(N2C[C@@H](F)[C@@H](F)C2)c1Cl` [Compound 103], the IC50 (in assay [1] (setting [2]); at Human CD73) was below 10 nM each time.

Turning to `C[C@@H](Nc1c(C#N)c(Cl)nc2c1cnn2[C@@H]1O[C@H](CS(=O)(=O)CP(=O)(O)O)[C@@H](O)[C@H]1O)c1cccc(C#N)c1` [Compound 193], the IC50 (in assay [1] (setting [2]); on Human CD73) was below 10 nM in each case.

Take `N#Cc1c(Cl)nc2c(cnn2[C@@H]2O[C@H](COCP(=O)(O)O)[C@@H](O)[C@H]2O)c1N1CC2CCCC2C1` (some centres unmarked) [Compound 61]: the IC50 (in assay [1] (setting [2]); at Human CD73) was below 10 nM throughout.

With `N#Cc1c(Cl)nc2c(ccn2[C@@H]2O[C@H](COP(=O)(O)CP(=O)(O)O)[C@@H](O)[C@H]2O)c1N1CC2CCCC2C1` (some centres unmarked) [Compound 43], the IC50 (in assay [1] (setting [2]); at Human CD73) was below 10 nM in each case.

Consider `N#Cc1c(Cl)nc2c(ccn2[C@@H]2O[C@H](COP(=O)(O)CP(=O)(O)O)[C@@H](O)[C@H]2O)c1NC1CCCC1` [Compound 3, (((((2R,3S,4R,5R)-5-(6-chloro-5-cyano-4-(cyclopentylamino)-1H-pyrrolo[2,3-b]pyridin-1-yl)-3,4-dihydroxytetrahydrofuran-2-yl)methoxy)(hydroxy)phosphoryl)methyl)phosphonic acid], for which the IC50 (in assay [1] (setting [2]); on Human CD73) was below 10 nM each time.

For `CN(c1c(C#N)c(Cl)nc2c1ccn2[C@@H]1O[C@H](COCP(=O)(O)O)[C@@H](O)[C@H]1O)C1CC(F)(F)C1` [Compound 153], the half-maximal inhibitory concentration (IC50) in assay [1] (setting [2]) was 10 to 100 nM; at Human CD73 it was below 10 nM.

In the case of `N#Cc1nc2c(ccn2[C@@H]2O[C@H](CS(=O)(=O)CP(=O)(O)O)[C@@H](O)[C@H]2O)c(NC2CC(F)(F)C2)c1Cl` [Compound 142], the IC50 (in assay [1] (setting [2]); on Human CD73) was below 10 nM throughout.

Turning to `C[C@H](Nc1c(C#N)c(Cl)nc2c1ncn2[C@@H]1O[C@H](COP(=O)(O)CP(=O)(O)O)[C@@H](O)[C@H]1O)c1ccccc1F` [Compound 242], the IC50 (in assay [1] (setting [2]); at Human CD73) was below 10 nM in each case.

`Cc1nc2c(ccn2[C@@H]2O[C@H](COCP(=O)(O)O)[C@@H](O)[C@H]2O)c(NC2CCCC2)c1C#N` [Compound 44]: the IC50 (in assay [1] (setting [2]); on Human CD73) was below 10 nM each time.

`N#Cc1c(Cl)nc2c(c(F)cn2[C@@H]2O[C@H](COCP(=O)(O)O)[C@@H](O)[C@H]2O)c1N1CCC(F)(F)C1` [Compound 151]: the IC50 (in assay [1] (setting [2]); on Human CD73) was below 10 nM each time.

For the compound `C[C@H](Nc1c(C#N)c(Cl)nc2c1cnn2[C@@H]1O[C@H](CS(=O)(=O)CP(=O)(O)O)[C@@H](O)[C@H]1O)c1cccc(F)c1` [Compound 180], the IC50 (in assay [1] (setting [2]); at Human CD73) was below 10 nM throughout.

Consider `N#Cc1c(Cl)nc2c(cnn2[C@@H]2O[C@H](COCP(=O)(O)O)[C@@H](O)[C@H]2O)c1N1CC(F)(F)C1` [Compound 78], for which the IC50 (in assay [1] (setting [2]); on Human CD73) was below 10 nM throughout.

On to `C[C@@H](Nc1c(C#N)c(Cl)nc2c1cnn2[C@@H]1O[C@H](CS(=O)(=O)CP(=O)(O)O)[C@@H](O)[C@H]1O)c1cccc(F)c1` [Compound 182], for which the IC50 (in assay [1] (setting [2]); at Human CD73) was below 10 nM throughout.

Consider `C[C@H](Nc1c(C#N)c(Cl)nc2c1ccn2[C@@H]1O[C@H](COP(=O)(O)CP(=O)(O)O)[C@@H](O)[C@H]1O)c1ccc(F)cc1` [Compound 35], for which the IC50 (in assay [1] (setting [2]); at Human CD73) was below 10 nM in each case.

`N#Cc1c(Cl)nc2c(cnn2[C@@H]2O[C@H](COCP(=O)(O)O)[C@@H](O)[C@H]2O)c1N1CC[C@H](F)C1` [Compound 79]: the IC50 (in assay [1] (setting [2]); at Human CD73) was below 10 nM throughout.

With `N#Cc1c(Cl)nc2c(ccn2[C@@H]2O[C@H](CS(=O)(=O)CP(=O)(O)O)[C@@H](O)[C@H]2O)c1NC1CCCC1` [Compound 25, (((((2S,3S,4R,5R)-5-(6-chloro-5-cyano-4-(cyclopentylamino)-1H-pyrrolo[2,3-b]pyridin-1-yl)-3,4-dihydroxytetrahydrofuran-2-yl)methyl)sulfonyl)methyl)phosphonic acid], the IC50 is below 10 nM in assay [1] (setting [2]), 0.1 nM in assay [1] (read-out: IC50) and below 10 nM on Human CD73.

As to `N#Cc1c(Cl)nc2c(ncn2[C@@H]2O[C@H](COCP(=O)(O)O)[C@@H](O)[C@H]2O)c1N1CC(F)(F)C1` [Compound 82], the IC50 (in assay [1] (setting [2]); on Human CD73) was below 10 nM each time.

Consider `N#Cc1c(Cl)nc2c(cnn2[C@@H]2O[C@H](COCP(=O)(O)O)[C@@H](O)[C@H]2O)c1NC1CCCC1` [Compound 69, ((((2R,3S,4R,5R)-5-(6-chloro-5-cyano-4-(cyclopentylamino)-1H-pyrazolo[3,4-b]pyridin-1-yl)-3,4-dihydroxytetrahydrofuran-2-yl)methoxy)methyl)phosphonic acid], for which the IC50 (in assay [1] (setting [2]); on Human CD73) was below 10 nM in each case.

For the compound `N#Cc1nc2c(ccn2[C@@H]2O[C@H](CS(=O)(=O)CP(=O)(O)O)[C@@H](O)[C@H]2O)c(NC2CCC(F)(F)CC2)c1Cl` [Compound 137], the IC50 (in assay [1] (setting [2]); at Human CD73) was below 10 nM throughout.
